Our source for the IC50 values is patent US12458647B2, “Macrocyclic derivative and use thereof” (Guangzhou Joyo Pharmatech Co., Ltd., priority 2022, dated 2025).

Usually IC50 stands for the concentration needed to halve the response being measured.

Assay type in all cases: cell-based
Experiment [1] relates to AsPC-1 cells. The experiment in a line: In vitro AsPC-1 cell proliferation experiment (10 days, 3D CellTiter-Glo). Conditions: 10 days culture. The protocol:
RPMI1640 medium, penicillin/streptomycin antibiotics were purchased from Gibco, and fetal bovine serum was purchased from Hyclone. 3D CellTiter-Glo (cell viability chemiluminescent detection reagent) reagent was purchased from Promega. The AsPC-1 cell line was purchased from ATCC, Envision multilabel plate reader (PerkinElmer).
AsPC-1 cells were seeded in an ultra-low adsorption 96-well U-shaped plate, with 80 μL of cell suspension per well, containing 1,000 AsPC-1 cells. The plate was incubated overnight in a carbon dioxide incubator.
The test compound was diluted by 5-fold to 8 concentrations with a pipette, i.e., from 2 mM to 25.6 nM and replicate wells were set up for the experiment. 78 μL of culture medium was added to the intermediate plate, then 2 μL of the gradient diluted compound was transferred into each well of the intermediate plate according to the corresponding position. After mixing well, 20 μL of each well was transferred to the cell plate. […] Another cell plate was prepared, and the signal value was read as the maximum value (the maximum value in the following equation) on the day of dosing for data analysis.
100 μL of cell viability chemiluminescent detection reagent was added to the cell plate and incubated at room temperature for 30 minutes to stabilize the luminescence signal. A multilabel plate reader was used for reading. […]
(Cellular ATP, detected with luciferase, serves as a proxy for viable cell number.)

The test system of experiment [2] is A549 cells. The experiment in a line: In vitro cell proliferation experiment (5 days), A549. As to conditions: A549, 5 days; read-out: Inhibitory Activity IC50. Here is the method:
(§1) RPMI 1640 medium, DMEM, Ham's F12 medium, F12K medium, IMDM and penicillin/streptomycin antibiotics were purchased from Gibco, fetal bovine serum was purchased from Hyclone, Envision multilabel plate reader (PerkinElmer). […]
(§2) The test compound was diluted by 5-fold to 8 concentrations with a pipette, i.e., from 2 mM to 25.6 nM, and replicate wells were set up for the experiment. […] Another cell plate was prepared, and the signal value was read as the maximum value (the maximum value in the following equation) on the day of dosing for data analysis.
(§3) 50 μL of cell viability chemiluminescent detection reagent was added to the cell plate and incubated at room temperature for 30 minutes to stabilize the luminescence signal. A multilabel plate reader was used for reading. […]

For experiment [3], the system named is NCI—H727 cells. The experiment in a line: In vitro cell proliferation experiment (5 days), H727. As to conditions: H727, 5 days; read-out: Inhibitory Activity IC50. The protocol:
as §1, §2, §3

Experiment [4] relates to Capan-1 cells. The experiment in a line: In vitro cell proliferation experiment (5 days), Capan-1. Conditions: Capan-1, 5 days; read-out: Inhibitory Activity IC50. The protocol: as §1, §2, §3
The subject of experiment [5] is A375 cell line. The experiment in a line: In vitro cell proliferation experiment (5 days), A375 (wild-type independent cell line). Conditions: A375, 5 days; read-out: Inhibitory Activity IC50. Here is the method: as §1, §2, §3

As to `CCn1c(-c2cc(N3CCN(C)CC3)cnc2C(C)OC)c2c3cc(ccc31)-c1csc(n1)CC(NC(=O)C1C(C)C1C)C(=O)N1NC(C(=O)OCC(C)(C)C2)C2CC1C2` (single isomer, unassigned) [Compound 6A], the IC50 is 1 nM in experiment [1]; 4.1 nM in experiment [2]; 0.4 nM in experiment [3]; 2.5 nM in experiment [4]; more than 6000 nM in experiment [5].
